Experimental data taken from the NIST ThermoML archive (doi:10.1016/j.jct.2008.10.008).
Where “and” joins values, the source holds several entries; their conditions need not be identical. Equal values may be shown once.

Columns and labels:
[1] = molar heat capacity at saturation pressure
[2] = for vapor or sublimation pressure: Inclined piston gauge
[3] = Molar enthalpy of transition or fusion

CC(C)(C)c1ccc(C(C)(C)C)cc1 [1,4-bis(1,1-dimethylethyl)benzene]
Details	Triple point temperature [K]	molar heat capacity	vapor or sublimation pressure [kPa]
[1], 5 K, Crystal 2	–	0.22 J/K/mol	–
[1], 5.533 K, Crystal 2	–	0.3 J/K/mol	–
[1], 6.588 K, Crystal 2	–	0.58 J/K/mol	–
[1], 7.503 K, Crystal 2	–	0.948 J/K/mol	–
[1], 8.461 K, Crystal 2	–	1.45 J/K/mol	–
[1], 9.448 K, Crystal 2	–	2.15 J/K/mol	–
[1], 10 K, Crystal 2	–	2.66 J/K/mol	–
[1], 10.47 K, Crystal 2	–	3.13 J/K/mol	–
[1], 11.6 K, Crystal 2	–	4.28 J/K/mol	–
[1], 12.86 K, Crystal 2	–	5.92 J/K/mol	–
[1], 14.25 K, Crystal 2	–	7.97 J/K/mol	–
[1], 15.79 K, Crystal 2	–	10.43 J/K/mol	–
[1], 17.5 K, Crystal 2	–	13.43 J/K/mol	–
[1], 19.42 K, Crystal 2	–	16.89 J/K/mol	–
[1], 20 K, Crystal 2	–	17.93 J/K/mol	–
[1], 21.58 K, Crystal 2	–	20.82 J/K/mol	–
[1], 24 K, Crystal 2	–	25.18 J/K/mol	–
[1], 26.71 K, Crystal 2	–	29.9 J/K/mol	–
[1], 29.7 K, Crystal 2	–	34.78 J/K/mol	–
[1], 30 K, Crystal 2	–	35.25 J/K/mol	–
[1], 33.02 K, Crystal 2	–	39.81 J/K/mol	–
[1], 36.72 K, Crystal 2	–	44.96 J/K/mol	–
[1], 40 K, Crystal 2	–	49.12 J/K/mol	–
[1], 40.81 K, Crystal 2	–	50.11 J/K/mol	–
[1], 45.31 K, Crystal 2	–	55.45 J/K/mol	–
[1], 50 K, Crystal 2	–	60.83 J/K/mol	–
[1], 50.28 K, Crystal 2	–	61.18 J/K/mol	–
[1], 53.35 K, Crystal 2	–	64.41 J/K/mol	–
[1], 55.8 K, Crystal 2	–	67 J/K/mol	–
[1], 58.24 K, Crystal 2	–	69.81 J/K/mol	–
[1], 60 K, Crystal 2	–	71.59 J/K/mol	–
[1], 63.85 K, Crystal 2	–	75.62 J/K/mol	–
[1], 70 K, Crystal 2	–	82.39 J/K/mol	–
[1], 70.16 K, Crystal 2	–	82.56 J/K/mol	–
[1], 77.05 K, Crystal 2	–	90.04 J/K/mol	–
[1], 80 K, Crystal 2	–	93.26 J/K/mol	–
[1], 84.6 K, Crystal 2	–	98.29 J/K/mol	–
[1], 87.33 K, Crystal 2	–	101.34 J/K/mol	–
[1], 90 K, Crystal 2	–	104.26 J/K/mol	–
[1], 92.81 K, Crystal 2	–	107.36 J/K/mol	–
[1], 95.36 K, Crystal 2	–	110.2 J/K/mol	–
[1], 100 K, Crystal 2	–	115.33 J/K/mol	–
[1], 101.84 K, Crystal 2	–	117.33 J/K/mol	–
[1], 104.42 K, Crystal 2	–	120.11 J/K/mol	–
[1], 113.87 K, Crystal 2	–	130.45 J/K/mol	–
[1], 120 K, Crystal 2	–	137.01 J/K/mol	–
[1], 124.55 K, Crystal 2	–	141.81 J/K/mol	–
[1], 136.29 K, Crystal 2	–	154.01 J/K/mol	–
[1], 140 K, Crystal 2	–	157.79 J/K/mol	–
[1], 148.14 K, Crystal 2	–	166.03 J/K/mol	–
[1], 160 K, Crystal 2	–	177.95 J/K/mol	–
[1], 160.18 K, Crystal 2	–	178.15 J/K/mol	–
[1], 172.27 K, Crystal 2	–	190.18 J/K/mol	–
[1], 180 K, Crystal 2	–	197.9 J/K/mol	–
[1], 184.35 K, Crystal 2	–	202.24 J/K/mol	–
[1], 196.47 K, Crystal 2	–	214.21 J/K/mol	–
[1], 200 K, Crystal 2	–	217.74 J/K/mol	–
[1], 208.62 K, Crystal 2	–	226.43 J/K/mol	–
[1], 220 K, Crystal 2	–	238.04 J/K/mol	–
[1], 220.76 K, Crystal 2	–	238.82 J/K/mol	–
[1], 232.87 K, Crystal 2	–	251.39 J/K/mol	–
[1], 240 K, Crystal 2	–	258.93 J/K/mol	–
[1], 246.43 K, Crystal 2	–	265.79 J/K/mol	–
[1], 260 K, Crystal 2	–	280.44 J/K/mol	–
[1], 261.46 K, Crystal 2	–	282.02 J/K/mol	–
[1], 276.43 K, Crystal 2	–	298.62 J/K/mol	–
[1], 280 K, Crystal 2	–	302.57 J/K/mol	–
[1], 284.66 K, Crystal 2	–	307.57 J/K/mol	–
[1], 291.28 K, Crystal 2	–	315.23 J/K/mol	–
[1], 293.84 K, Crystal 2	–	318.28 J/K/mol	–
[1], 298.15 K, Crystal 2	–	323.15 J/K/mol	–
[1], 298.15 K, Liquid	–	347.84 J/K/mol	–
[1], 300 K, Crystal 2	–	325.26 J/K/mol	–
[1], 300 K, Liquid	–	349.41 J/K/mol	–
[1], 302.67 K, Crystal 2	–	328.3 J/K/mol	–
[1], 304.12 K, Crystal 2	–	330 J/K/mol	–
[1], 305.99 K, Crystal 2	–	332.26 J/K/mol	–
[1], 310 K, Liquid	–	357.8 J/K/mol	–
[1], 315.02 K, Crystal 2	–	342.89 J/K/mol	–
[1], 320 K, Crystal 2	–	348.63 J/K/mol	–
[1], 320 K, Liquid	–	366 J/K/mol	–
[1], 327.23 K, Crystal 2	–	357.27 J/K/mol	–
[1], 330 K, Liquid	–	374.03 J/K/mol	–
[1], 339.27 K, Crystal 2	–	372.29 J/K/mol	–
[1], 340 K, Crystal 2	–	373.15 J/K/mol	–
[1], 340 K, Liquid	–	381.92 J/K/mol	–
[1], 340.54 K, Crystal 2	–	373.89 J/K/mol	–
[1], 350 K, Liquid	–	389.72 J/K/mol	–
[1], 350.73 K, Crystal 1	–	375.72 J/K/mol	–
[1], 350.73 K, Crystal 2	–	386.83 J/K/mol	–
[1], 350.78 K, Crystal 1	–	375.79 J/K/mol	–
[1], 350.78 K, Liquid	–	390.31 J/K/mol	–
[1], 354.93 K, Liquid	–	393.57 J/K/mol	–
[1], 356.83 K, Liquid	–	395.01 J/K/mol	–
[1], 358.46 K, Liquid	–	396.37 J/K/mol	–
[1], 358.5 K, Liquid	–	396.23 J/K/mol and 396.2 J/K/mol	–
[1], 360 K, Liquid	–	397.37 J/K/mol	–
[1], 363.7 K, Liquid	–	400.3 J/K/mol	–
[1], 366.52 K, Liquid	–	402.21 J/K/mol	–
[1], 374.01 K, Liquid	–	407.95 J/K/mol	–
[1], 380 K, Liquid	–	412.36 J/K/mol	–
[1], 380.16 K, Liquid	–	412.53 J/K/mol	–
[1], 395.48 K, Liquid	–	423.8 J/K/mol	–
[1], 398.2 K, Liquid	–	425.82 J/K/mol	–
[1], 400 K, Liquid	–	427.09 J/K/mol	–
[1], 416.83 K, Liquid	–	439.37 J/K/mol	–
[1], 417.39 K, Liquid	–	439.74 J/K/mol	–
[1], 420 K, Liquid	–	441.61 J/K/mol	–
[1], 433.85 K, Liquid	–	451.62 J/K/mol	–
[1], 435.24 K, Liquid	–	452.59 J/K/mol	–
[1], 440 K, Liquid	–	456.08 J/K/mol	–
[2], 319.99 K, Crystal 2	–	–	0.0214
[2], 329.99 K, Crystal 2	–	–	0.0543
[2], 339.98 K, Crystal 2	–	–	0.1315
[2], 349.98 K, Crystal 2	–	–	0.2996
[2], 354.98 K, Liquid	–	–	0.4031
[2], 359.98 K, Liquid	–	–	0.5294
[2], 369.98 K, Liquid	–	–	0.8897
[2], 379.97 K, Liquid	–	–	1.445
[2], 387.02 K, Liquid	–	–	1.996
[2], 389.97 K, Liquid	–	–	2.276
[2], 394.97 K, Liquid	–	–	2.825
[2], Crystal, Adiabatic calorimetry	350.78	–	–

Details	Molar enthalpy of transition or fusion, [3] [kcal/mol]	Triple point temperature, [2] [K]
Crystal 1	1.9627	–
Crystal 2	3.4321	350.73

CC(C)(C)c1ccccc1 [(1,1-dimethylethyl)benzene]
Details	Triple point temperature [K]	molar heat capacity [J/K/mol]
[1], 5 K, Crystal	–	0.72
[1], 5.009 K, Crystal	–	0.72
[1], 5.752 K, Crystal	–	1.09
[1], 6.678 K, Crystal	–	1.68
[1], 7.653 K, Crystal	–	2.44
[1], 8.667 K, Crystal	–	3.35
[1], 9.709 K, Crystal	–	4.46
[1], 10 K, Crystal	–	4.79
[1], 10.84 K, Crystal	–	5.76
[1], 12.09 K, Crystal	–	7.28
[1], 13.47 K, Crystal	–	9.104
[1], 14.96 K, Crystal	–	11.15
[1], 16.6 K, Crystal	–	13.48
[1], 18.41 K, Crystal	–	16.04
[1], 20 K, Crystal	–	18.27
[1], 20.41 K, Crystal	–	18.84
[1], 22.63 K, Crystal	–	21.93
[1], 25.1 K, Crystal	–	25.19
[1], 27.86 K, Crystal	–	28.67
[1], 30 K, Crystal	–	31.19
[1], 30.93 K, Crystal	–	32.24
[1], 34.35 K, Crystal	–	35.9
[1], 38.17 K, Crystal	–	39.64
[1], 40 K, Crystal	–	41.3
[1], 42.44 K, Crystal	–	43.41
[1], 47.2 K, Crystal	–	47.28
[1], 50 K, Crystal	–	49.43
[1], 52.43 K, Crystal	–	51.23
[1], 53.45 K, Crystal	–	51.95
[1], 58.21 K, Crystal	–	55.36
[1], 58.43 K, Crystal	–	55.52
[1], 60 K, Crystal	–	56.6
[1], 64.04 K, Crystal	–	59.39
[1], 70 K, Crystal	–	63.57
[1], 70.32 K, Crystal	–	63.81
[1], 77.32 K, Crystal	–	68.59
[1], 80 K, Crystal	–	70.45
[1], 84.98 K, Crystal	–	73.93
[1], 87.08 K, Crystal	–	75.43
[1], 90 K, Crystal	–	77.44
[1], 93.34 K, Crystal	–	79.79
[1], 93.37 K, Crystal	–	79.85
[1], 100 K, Crystal	–	84.51
[1], 101.27 K, Crystal	–	85.43
[1], 102.4 K, Crystal	–	86.21
[1], 110.41 K, Crystal	–	91.89
[1], 111.86 K, Crystal	–	92.92
[1], 120 K, Crystal	–	98.68
[1], 120.01 K, Crystal	–	98.72
[1], 129.8 K, Crystal	–	105.69
[1], 139.62 K, Crystal	–	112.79
[1], 140 K, Crystal	–	113.02
[1], 149.52 K, Crystal	–	119.99
[1], 160 K, Crystal	–	127.65
[1], 160.53 K, Crystal	–	128.13
[1], 162.39 K, Crystal	–	129.37
[1], 172.82 K, Crystal	–	137.16
[1], 173.48 K, Crystal	–	137.69
[1], 180 K, Crystal	–	142.42
[1], 185.83 K, Crystal	–	147.07
[1], 186.21 K, Crystal	–	147.43
[1], 197.14 K, Crystal	–	156.12
[1], 200 K, Crystal	–	157.51
[1], 203.2 K, Crystal	–	162.61
[1], 206.78 K, Crystal	–	167.05
[1], 215.31 K, Crystal	–	169.1
[1], 215.31 K, Liquid	–	208.01
[1], 220 K, Liquid	–	209.58
[1], 223.09 K, Liquid	–	210.65
[1], 223.25 K, Liquid	–	210.68
[1], 232.46 K, Liquid	–	213.79
[1], 232.58 K, Liquid	–	213.79
[1], 240 K, Liquid	–	216.6
[1], 240.86 K, Liquid	–	216.97
[1], 253.04 K, Liquid	–	221.76
[1], 260 K, Liquid	–	224.65
[1], 265.37 K, Liquid	–	226.92
[1], 277.79 K, Liquid	–	232.27
[1], 280 K, Liquid	–	233.26
[1], 291.32 K, Liquid	–	238.42
[1], 294.64 K, Liquid	–	239.95
[1], 298.15 K, Liquid	–	241.59
[1], 300 K, Liquid	–	242.45
[1], 305.81 K, Liquid	–	245.17
[1], 311.47 K, Liquid	–	247.82
[1], 320 K, Liquid	–	251.92
[1], 329.17 K, Liquid	–	256.4
[1], 330 K, Liquid	–	256.8
[1], 340 K, Liquid	–	261.71
[1], 347.61 K, Liquid	–	265.47
[1], 360 K, Liquid	–	271.66
[1], 365.98 K, Liquid	–	274.65
[1], 380 K, Liquid	–	281.68
[1], 384.21 K, Liquid	–	283.78
[1], 400 K, Liquid	–	291.7
[1], 402.17 K, Liquid	–	292.78
[1], 419.78 K, Liquid	–	301.62
[1], 420 K, Liquid	–	301.72
[1], 435.18 K, Liquid	–	309.12
[1], 440 K, Liquid	–	311.52
[2], Crystal, Adiabatic calorimetry	215.31	–

Details	Molar enthalpy of transition or fusion [kcal/mol]
[3], Crystal	2.0062
